These results are taken from patent US11208412B2 (DAEGU-GYEONGBUK MEDICAL INNOVATION FOUNDATION, priority 2017, dated 2021).

Structures are written as SMILES.

What all share (assay): Kinase selectivity, DiscoverX scanMAX Kinase assay panel (% control)
Format in all cases: binding

The target in assay [1] is T1, kinases of the scanMAX Kinase assay panel (Homo sapiens, UniProt P36888, R834Q).
T1 construct: purchased DiscoverX Co. (contract measurement) scanMAX Kinase assay panel
T1 sequence (P36888 27-993 R834Q): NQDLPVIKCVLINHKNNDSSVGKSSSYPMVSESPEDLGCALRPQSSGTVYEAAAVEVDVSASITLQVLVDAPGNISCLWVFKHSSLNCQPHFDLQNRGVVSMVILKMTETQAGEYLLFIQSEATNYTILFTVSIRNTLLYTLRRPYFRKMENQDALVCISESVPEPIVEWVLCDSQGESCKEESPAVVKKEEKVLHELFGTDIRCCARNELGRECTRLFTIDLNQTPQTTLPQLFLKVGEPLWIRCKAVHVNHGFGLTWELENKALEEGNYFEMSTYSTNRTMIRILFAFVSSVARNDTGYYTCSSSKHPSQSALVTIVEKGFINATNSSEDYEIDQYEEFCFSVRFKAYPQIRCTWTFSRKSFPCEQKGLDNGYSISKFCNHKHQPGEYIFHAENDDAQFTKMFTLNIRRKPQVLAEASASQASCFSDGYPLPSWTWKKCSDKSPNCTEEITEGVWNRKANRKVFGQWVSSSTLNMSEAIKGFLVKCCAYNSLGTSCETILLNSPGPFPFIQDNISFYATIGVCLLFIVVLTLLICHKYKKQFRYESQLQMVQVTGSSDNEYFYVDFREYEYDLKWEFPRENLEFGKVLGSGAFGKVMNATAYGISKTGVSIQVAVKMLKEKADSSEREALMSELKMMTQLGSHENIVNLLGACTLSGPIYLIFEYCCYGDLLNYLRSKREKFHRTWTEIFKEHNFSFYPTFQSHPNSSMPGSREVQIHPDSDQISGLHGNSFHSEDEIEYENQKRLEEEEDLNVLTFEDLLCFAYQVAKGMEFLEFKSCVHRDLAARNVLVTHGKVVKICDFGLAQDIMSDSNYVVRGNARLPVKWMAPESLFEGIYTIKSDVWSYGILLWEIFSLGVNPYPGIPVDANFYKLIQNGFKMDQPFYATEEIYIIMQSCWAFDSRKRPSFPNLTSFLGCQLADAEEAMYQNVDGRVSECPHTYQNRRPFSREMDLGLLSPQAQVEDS
The settings on record: FLT3(R834Q); 1 uM. In a few lines: (§1)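 Compounds tested at 1 uM against the scanMAX kinase panel. Signal expressed as % control = (compound − positive control)/(DMSO negative control − positive control) × 100, where positive control = 0% and DMSO = 100%; below 35% counted as activity on that kinase.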

The target in assay [2] is T2, kinases of the scanMAX Kinase assay panel (Homo sapiens, UniProt P00533).
T2 construct: purchased DiscoverX Co. (contract measurement) scanMAX Kinase assay panel
T2 sequence (P00533 25-1210): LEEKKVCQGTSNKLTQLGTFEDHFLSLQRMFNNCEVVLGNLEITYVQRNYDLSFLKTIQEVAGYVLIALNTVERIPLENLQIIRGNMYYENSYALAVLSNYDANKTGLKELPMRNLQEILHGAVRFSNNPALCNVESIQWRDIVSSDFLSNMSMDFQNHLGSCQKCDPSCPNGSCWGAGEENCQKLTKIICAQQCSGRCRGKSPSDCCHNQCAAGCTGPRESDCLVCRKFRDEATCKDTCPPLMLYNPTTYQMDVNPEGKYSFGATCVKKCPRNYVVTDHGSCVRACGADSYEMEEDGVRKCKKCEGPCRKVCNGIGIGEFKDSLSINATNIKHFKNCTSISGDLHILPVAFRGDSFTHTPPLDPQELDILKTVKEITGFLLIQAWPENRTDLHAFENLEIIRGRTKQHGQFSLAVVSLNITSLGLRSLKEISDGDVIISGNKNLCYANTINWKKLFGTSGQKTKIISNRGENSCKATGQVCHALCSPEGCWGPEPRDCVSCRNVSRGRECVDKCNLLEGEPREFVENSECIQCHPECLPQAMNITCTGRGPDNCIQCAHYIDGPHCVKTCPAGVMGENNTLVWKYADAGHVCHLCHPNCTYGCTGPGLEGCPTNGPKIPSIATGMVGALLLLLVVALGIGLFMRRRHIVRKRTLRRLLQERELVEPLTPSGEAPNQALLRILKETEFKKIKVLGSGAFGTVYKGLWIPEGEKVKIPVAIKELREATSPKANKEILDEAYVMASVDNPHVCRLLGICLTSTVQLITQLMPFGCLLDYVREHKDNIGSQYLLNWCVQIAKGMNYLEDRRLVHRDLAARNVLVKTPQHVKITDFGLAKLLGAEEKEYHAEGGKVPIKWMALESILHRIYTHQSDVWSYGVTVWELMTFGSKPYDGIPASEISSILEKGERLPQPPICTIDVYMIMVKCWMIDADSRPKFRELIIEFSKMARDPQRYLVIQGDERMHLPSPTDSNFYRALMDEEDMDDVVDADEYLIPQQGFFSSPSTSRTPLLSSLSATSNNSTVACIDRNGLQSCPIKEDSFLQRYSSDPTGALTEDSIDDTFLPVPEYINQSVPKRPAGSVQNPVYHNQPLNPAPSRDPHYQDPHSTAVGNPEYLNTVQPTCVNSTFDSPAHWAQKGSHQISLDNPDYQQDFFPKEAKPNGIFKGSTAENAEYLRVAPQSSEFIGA
To be noted: EGFR; 1 uM. In a few lines:
as §1

For assay [3], the target named is T3, kinases of the scanMAX Kinase assay panel (Homo sapiens, UniProt Q9Y2U5).
T3 construct: purchased DiscoverX Co. (contract measurement) scanMAX Kinase assay panel
T3 sequence (Q9Y2U5 1-619): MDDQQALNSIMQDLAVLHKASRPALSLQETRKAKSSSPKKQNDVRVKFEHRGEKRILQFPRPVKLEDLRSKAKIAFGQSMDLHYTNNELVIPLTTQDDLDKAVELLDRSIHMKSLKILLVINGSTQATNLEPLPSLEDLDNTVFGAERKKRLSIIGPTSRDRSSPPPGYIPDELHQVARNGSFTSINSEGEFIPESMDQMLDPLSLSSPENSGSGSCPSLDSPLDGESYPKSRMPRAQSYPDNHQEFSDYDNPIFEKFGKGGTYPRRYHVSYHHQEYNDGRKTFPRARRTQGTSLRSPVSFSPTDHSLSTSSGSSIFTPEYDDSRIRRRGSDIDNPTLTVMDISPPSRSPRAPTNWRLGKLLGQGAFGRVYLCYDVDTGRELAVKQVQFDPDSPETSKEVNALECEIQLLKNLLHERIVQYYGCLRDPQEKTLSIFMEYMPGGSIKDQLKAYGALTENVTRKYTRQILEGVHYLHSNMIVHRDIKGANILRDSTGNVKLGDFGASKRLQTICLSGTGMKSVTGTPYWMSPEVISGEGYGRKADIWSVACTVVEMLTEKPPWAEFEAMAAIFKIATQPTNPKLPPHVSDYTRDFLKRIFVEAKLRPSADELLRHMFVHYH
The settings on record: MAP3K2; 1 uM. In a few lines:
as §1

Assay [4] deals with T4, kinases of the scanMAX Kinase assay panel (Homo sapiens, UniProt P11309).
T4 construct: purchased DiscoverX Co. (contract measurement) scanMAX Kinase assay panel
T4 sequence (P11309 whole entry): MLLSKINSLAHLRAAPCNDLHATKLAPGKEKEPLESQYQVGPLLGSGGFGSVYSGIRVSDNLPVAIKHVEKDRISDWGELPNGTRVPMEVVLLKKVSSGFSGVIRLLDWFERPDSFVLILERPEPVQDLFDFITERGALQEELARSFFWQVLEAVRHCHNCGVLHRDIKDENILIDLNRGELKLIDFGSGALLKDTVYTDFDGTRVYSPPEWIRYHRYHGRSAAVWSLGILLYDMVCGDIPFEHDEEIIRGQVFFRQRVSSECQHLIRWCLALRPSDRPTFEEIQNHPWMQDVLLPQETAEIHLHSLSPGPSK
To be noted: PIM1; 1 uM. In a few lines:
as §1

For assay [5], the target named is T5, kinases of the scanMAX Kinase assay panel (Homo sapiens, UniProt Q14164).
T5 construct: purchased DiscoverX Co. (contract measurement) scanMAX Kinase assay panel
T5 sequence (Q14164 1-716): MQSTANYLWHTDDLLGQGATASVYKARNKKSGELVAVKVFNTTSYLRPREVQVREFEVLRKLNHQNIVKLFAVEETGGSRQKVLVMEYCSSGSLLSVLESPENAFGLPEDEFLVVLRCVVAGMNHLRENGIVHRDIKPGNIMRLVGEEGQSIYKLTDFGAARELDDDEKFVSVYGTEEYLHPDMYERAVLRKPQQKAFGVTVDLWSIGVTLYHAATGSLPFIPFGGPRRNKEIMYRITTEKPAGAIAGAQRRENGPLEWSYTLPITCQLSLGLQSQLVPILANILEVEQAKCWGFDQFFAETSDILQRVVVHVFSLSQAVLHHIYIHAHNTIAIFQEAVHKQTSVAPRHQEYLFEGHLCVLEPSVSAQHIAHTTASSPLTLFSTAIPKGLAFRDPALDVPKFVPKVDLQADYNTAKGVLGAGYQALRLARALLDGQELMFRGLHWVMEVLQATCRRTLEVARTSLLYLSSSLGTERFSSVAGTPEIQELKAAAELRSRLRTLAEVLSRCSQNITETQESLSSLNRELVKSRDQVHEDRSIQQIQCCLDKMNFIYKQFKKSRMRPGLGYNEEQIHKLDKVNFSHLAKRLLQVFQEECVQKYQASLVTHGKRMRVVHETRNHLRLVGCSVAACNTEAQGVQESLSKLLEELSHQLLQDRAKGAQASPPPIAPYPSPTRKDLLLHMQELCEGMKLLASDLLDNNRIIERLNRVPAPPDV
The settings on record: IKK-epsilon; 1 uM. In a few lines:
as §1

For the molecule `CNc1nc(Nc2ccc(C(=O)N3CCOCC3)cc2OC)nc2[nH]cc(C#N)c12` [Example 1, 2-((2-methoxy-4-(morpholine-4-carbonyl)phenyl)amino)-4-(methylamino)-7H-pyrrolo[2,3-d]pyrimidine-5-carbonitrile], the remaining binding at 1 µM in assay [1] was determined as 65%; in assay [2], 91%; in assay [3], 85%; in assay [4] it was 85%; in assay [5] it was 98%.

In the case of `CC1(Nc2nc(Nc3cnn([C@H]4CCN(C5COC5)C[C@@H]4F)c3Cl)nc3[nH]cc(C#N)c23)CC1` [Example 52, 2-((5-chloro-1-((3S,4S)-3-fluoro-1-(oxetane-3-yl)piperidine-4-yl)-1H-pyrazole-4-yl)amino)((1-methylcyclopropyl)amino)-7H-pyrrolo[2,3-d]pyrimidine-5-carbonitrile], the remaining binding at 1 µM stood at 7.8% in assay [1]; 31% in assay [2]; 0.05% in assay [3]; 57% in assay [4]; 9.9% in assay [5].

Turning to `CCNc1nc(Nc2ccc(C(=O)N3CCC(N4CCOCC4)CC3)cc2OC)nc2[nH]cc(C(F)(F)F)c12` [Example 104, (4-((4-(ethylamino)-5-(trifluoromethyl)-7H-pyrrolo[2,3-d]pyrimidine-2-yl)amino)-3-methoxyphenyl)(4-morpholinopiperidine-1-yl)methanone], the remaining binding at 1 µM was found to be 100% in assay [1]; 82% in assay [2]; 92% in assay [3]; 80% in assay [4]; 95% in assay [5].
